# Results reported in article PMC5218480 (PLoS ONE, 2017).
# Tested on: MV-4-11 cells
# Experiment: Gene expression microarray analysis (Affymetrix PrimeView) and GSEA
# Type: cell-based, human
# Design: RFU PODN (11730768_x_at) / Fold change /veh PODN (11730768_x_at) / RFU LINC00158 (11744669_a_at) / Fold change /veh LINC00158 (11744669_a_at) / RFU DUSP10 (11751237_a_at) / Fold change /veh DUSP10 (11751237_a_at) / RFU ID3 (11757404_x_at) / Fold change /veh ID3 (11757404_x_at) / RFU PLEKHG5 (11737974_s_at) / Fold change /veh PLEKHG5 (11737974_s_at) / RFU LRRC4B (11730491_at) / Fold change /veh LRRC4B (11730491_at) / RFU GIMAP4 (11747438_a_at) / Fold change /veh GIMAP4 (11747438_a_at) / RFU KRT8 (11758183_x_at) / Fold change /veh KRT8 (11758183_x_at) / RFU CNN1 (11734310_a_at) / Fold change /veh CNN1 (11734310_a_at) / RFU VPS37D (11726825_at) / Fold change /veh VPS37D (11726825_at) / RFU C10orf10 (11716522_x_at) / Fold change /veh C10orf10 (11716522_x_at) / RFU KIR2DL2 /// KIR2DL4 /// KIR2DL5A /// KIR2DL5B /// KIR2DS1 /// KIR2DS2 /// KIR2DS3 /// KIR2DS4 /// KIR3DL3 /// KIR3DL3 /// KIR3DS1 (11738374_at) / Fold change /veh KIR2DL2 /// KIR2DL4 /// KIR2DL5A /// KIR2DL5B /// KIR2DS1 /// KIR2DS2 /// KIR2DS3 /// KIR2DS4 /// KIR3DL3 /// KIR3DL3 /// KIR3DS1 (11738374_at) / RFU C1QL1 (11718748_at) / Fold change /veh C1QL1 (11718748_at) / RFU TMPRSS4 (11747572_a_at) / Fold change /veh TMPRSS4 (11747572_a_at) / RFU HAMP (11756126_x_at) / Fold change /veh HAMP (11756126_x_at) / RFU RNFT2 (11725882_a_at) / Fold change /veh RNFT2 (11725882_a_at) / RFU NR4A2 (11747474_a_at) / Fold change /veh NR4A2 (11747474_a_at) / RFU ABCC12 (11746883_a_at) / Fold change /veh ABCC12 (11746883_a_at) / RFU TMEM136 (11760407_x_at) / Fold change /veh TMEM136 (11760407_x_at) / RFU CLDN22 /// WWC2 (11732394_at) / Fold change /veh CLDN22 /// WWC2 (11732394_at) / RFU HLA-DPB1 (11760878_x_at) / Fold change /veh HLA-DPB1 (11760878_x_at) / RFU SPINT1 (11716480_a_at) / Fold change /veh SPINT1 (11716480_a_at) / RFU GAP43 (11754022_s_at) / Fold change /veh GAP43 (11754022_s_at) / RFU A4GNT (11735810_at) / Fold change /veh A4GNT (11735810_at) / RFU PRB3 (11715151_x_at) / Fold change /veh PRB3 (11715151_x_at) / RFU TUBB4B (11761932_at) / Fold change /veh TUBB4B (11761932_at) / RFU CAPN14 (11732068_a_at) / Fold change /veh CAPN14 (11732068_a_at) / RFU TMCC2 (11721928_a_at) / Fold change /veh TMCC2 (11721928_a_at) / RFU IRGQ (11745062_a_at) / Fold change /veh IRGQ (11745062_a_at) / RFU FAM174B (11720279_a_at) / Fold change /veh FAM174B (11720279_a_at) / RFU TMPRSS4 (11748680_a_at) / Fold change /veh TMPRSS4 (11748680_a_at) / RFU FAM212B (11763350_a_at) / Fold change /veh FAM212B (11763350_a_at) / RFU PLEKHG5 (11743358_a_at) / Fold change /veh PLEKHG5 (11743358_a_at) / RFU ZSCAN30 (11745921_a_at) / Fold change /veh ZSCAN30 (11745921_a_at) / RFU CMKLR1 (11741424_a_at) / Fold change /veh CMKLR1 (11741424_a_at) / RFU LOC101060620 /// MAPK8IP1 (11723275_at) / Fold change /veh LOC101060620 /// MAPK8IP1 (11723275_at) / RFU SPTSSB (11747773_x_at) / Fold change /veh SPTSSB (11747773_x_at) / RFU PRSS12 (11739890_at) / Fold change /veh PRSS12 (11739890_at) / RFU BIN1 (11741810_x_at) / Fold change /veh BIN1 (11741810_x_at) / RFU WNT11 (11732464_a_at) / Fold change /veh WNT11 (11732464_a_at) / RFU C10orf10 (11716521_a_at) / Fold change /veh C10orf10 (11716521_a_at) / RFU C5orf56 (11738089_at) / Fold change /veh C5orf56 (11738089_at) / RFU CYB561 (11721691_x_at) / Fold change /veh CYB561 (11721691_x_at) / RFU ANKRD19P (11752326_a_at) / Fold change /veh ANKRD19P (11752326_a_at) / RFU OR2T12 /// OR2T33 /// OR2T8 (11738714_s_at) / Fold change /veh OR2T12 /// OR2T33 /// OR2T8 (11738714_s_at) / RFU VCAN (11748164_a_at) / Fold change /veh VCAN (11748164_a_at) / RFU JSRP1 (11732532_at) / Fold change /veh JSRP1 (11732532_at) / RFU KRTAP10-11 (11738290_x_at) / Fold change /veh KRTAP10-11 (11738290_x_at) / RFU MYO3A (11730013_a_at) / Fold change /veh MYO3A (11730013_a_at) / RFU EBF3 (11725865_a_at) / Fold change /veh EBF3 (11725865_a_at) / RFU CAMK2N1 (11719241_x_at) / Fold change /veh CAMK2N1 (11719241_x_at) / RFU C5orf56 (11738088_a_at) / Fold change /veh C5orf56 (11738088_a_at) / RFU OLFML3 (11715873_a_at) / Fold change /veh OLFML3 (11715873_a_at) / RFU LOC100653217 /// NTM (11731650_a_at) / Fold change /veh LOC100653217 /// NTM (11731650_a_at) / RFU MAPK11 (11762145_a_at) / Fold change /veh MAPK11 (11762145_a_at) / RFU FIZ1 (11724087_x_at) / Fold change /veh FIZ1 (11724087_x_at) / RFU OASL (11726364_x_at) / Fold change /veh OASL (11726364_x_at) / RFU SOX15 (11748057_x_at) / Fold change /veh SOX15 (11748057_x_at) / RFU CD79A (11719716_a_at) / Fold change /veh CD79A (11719716_a_at) / RFU HIST1H1D (11736915_at) / Fold change /veh HIST1H1D (11736915_at) / RFU CASKIN2 (11723855_a_at) / Fold change /veh CASKIN2 (11723855_a_at) / RFU LOC730098 (11760151_x_at) / Fold change /veh LOC730098 (11760151_x_at) / RFU OR4N2 (11742367_at) / Fold change /veh OR4N2 (11742367_at) / RFU PRRT2 (11749266_a_at) / Fold change /veh PRRT2 (11749266_a_at) / RFU SNX32 (11753110_a_at) / Fold change /veh SNX32 (11753110_a_at) / RFU CDHR5 (11726645_a_at) / Fold change /veh CDHR5 (11726645_a_at) / RFU RCAN1 (11760418_a_at) / Fold change /veh RCAN1 (11760418_a_at) / RFU FAM167A (11723789_a_at) / Fold change /veh FAM167A (11723789_a_at) / RFU FAM26E (11764081_at) / Fold change /veh FAM26E (11764081_at) / RFU ISYNA1 (11749810_s_at) / Fold change /veh ISYNA1 (11749810_s_at) / RFU ACY1 (11761880_at) / Fold change /veh ACY1 (11761880_at) / RFU 11764098_at / Fold change /veh 11764098_at / RFU SAMD14 (11745864_x_at) / Fold change /veh SAMD14 (11745864_x_at) / RFU NPB (11741838_a_at) / Fold change /veh NPB (11741838_a_at) / RFU TMPRSS6 (11731388_a_at) / Fold change /veh TMPRSS6 (11731388_a_at) / RFU KRTAP10-2 (11738614_at) / Fold change /veh KRTAP10-2 (11738614_at) / RFU ARHGAP8 /// PRR5-ARHGAP8 (11727945_x_at) / Fold change /veh ARHGAP8 /// PRR5-ARHGAP8 (11727945_x_at) / RFU KRTAP5-7 /// NADSYN1 (11734609_at) / Fold change /veh KRTAP5-7 /// NADSYN1 (11734609_at) / RFU RASL12 (11751679_a_at) / Fold change /veh RASL12 (11751679_a_at) / RFU CDKN2B (11736163_a_at) / Fold change /veh CDKN2B (11736163_a_at) / RFU PRF1 (11729649_at) / Fold change /veh PRF1 (11729649_at) / RFU, ZNF638 /// ZNF638-IT1 / Fold change vs veh, ZNF638 /// ZNF638-IT1 / RFU, PANK3 / Fold change vs veh, PANK3 / RFU, SH3YL1 / Fold change vs veh, SH3YL1 / RFU, ZEB2 / Fold change vs veh, ZEB2 / RFU, NRIP1 / Fold change vs veh, NRIP1 / RFU, PTTG1IP / Fold change vs veh, PTTG1IP / RFU, CAPN2 / Fold change vs veh, CAPN2 / RFU, MED14 / Fold change vs veh, MED14 / RFU, SNORA58 / Fold change vs veh, SNORA58 / RFU, C1orf63 / Fold change vs veh, C1orf63 / RFU, LRRFIP1 / Fold change vs veh, LRRFIP1 / RFU, NDUFAF7 / Fold change vs veh, NDUFAF7 / RFU, SLC12A2 / Fold change vs veh, SLC12A2 / RFU, IBTK / Fold change vs veh, IBTK / RFU, ESF1 / Fold change vs veh, ESF1 / Fold change vs veh, TMEM50B / RFU, TAOK1 / Fold change vs veh, TAOK1 / RFU, ACBD3 / Fold change vs veh, ACBD3 / RFU, TMA16 / Fold change vs veh, TMA16 / RFU, RWDD3 / Fold change vs veh, RWDD3 / RFU, BCAT1 / Fold change vs veh, BCAT1 / RFU, EDEM3 / Fold change vs veh, EDEM3 / RFU, TMEM33 / Fold change vs veh, TMEM33 / RFU, WDR75 / Fold change vs veh, WDR75 / RFU, AHCTF1 / Fold change vs veh, AHCTF1 / RFU, TFRC / Fold change vs veh, TFRC / RFU, ZDHHC17 / Fold change vs veh, ZDHHC17 / RFU, NOM1 / Fold change vs veh, NOM1 / RFU, ARL8B / Fold change vs veh, ARL8B / RFU, ZBTB11 / Fold change vs veh, ZBTB11 / RFU, TAMM41 / Fold change vs veh, TAMM41 / RFU, KIAA1704 /// LOC100996395 / Fold change vs veh, KIAA1704 /// LOC100996395 / RFU, ING1 / Fold change vs veh, ING1 / RFU, TRMT61B / Fold change vs veh, TRMT61B / RFU, FUBP3 / Fold change vs veh, FUBP3 / RFU, TP53 / Fold change vs veh, TP53 / RFU, TNKS2 / Fold change vs veh, TNKS2 / RFU, ZFP14 / Fold change vs veh, ZFP14 / RFU, ACTR2 / Fold change vs veh, ACTR2 / RFU, PPP3R1 / Fold change vs veh, PPP3R1 / RFU, PIK3R1 / Fold change vs veh, PIK3R1 / RFU, HNRNPA1 / Fold change vs veh, HNRNPA1 / RFU, RNF170 / Fold change vs veh, RNF170 / RFU, ZNF28 / Fold change vs veh, ZNF28 / RFU, RNGTT / Fold change vs veh, RNGTT / RFU, OGT / Fold change vs veh, OGT / RFU, BRD1 / Fold change vs veh, BRD1 / RFU, MARS / Fold change vs veh, MARS / RFU, ZNF655 / Fold change vs veh, ZNF655 / RFU, FAHD1 / Fold change vs veh, FAHD1 / RFU, BDP1 / Fold change vs veh, BDP1 / RFU, LRRCC1 / Fold change vs veh, LRRCC1 / RFU, ARID1A / Fold change vs veh, ARID1A / RFU, ZNF146 / Fold change vs veh, ZNF146 / RFU, ZNF330 / Fold change vs veh, ZNF330 / RFU, GPN3 / Fold change vs veh, GPN3 / RFU, C9orf123 / Fold change vs veh, C9orf123 / RFU, N4BP2L2 / Fold change vs veh, N4BP2L2 / RFU, ARFIP1 / Fold change vs veh, ARFIP1 / RFU, FAM179B / Fold change vs veh, FAM179B / RFU, BCL10 / Fold change vs veh, BCL10 / RFU, UHRF1BP1L / Fold change vs veh, UHRF1BP1L / RFU, BET1 / Fold change vs veh, BET1 / RFU, CNOT2 / Fold change vs veh, CNOT2 / RFU, ZNF268 / Fold change vs veh, ZNF268 / Fold change vs veh, ZNF507 / RFU, DGCR2 / Fold change vs veh, DGCR2 / RFU, WDSUB1 / Fold change vs veh, WDSUB1 / Fold change vs veh, HSP90B1 /// MIR3652 / RFU, ADSS / Fold change vs veh, ADSS / RFU, GK / Fold change vs veh, GK / RFU, ZNF148 / Fold change vs veh, ZNF148 / RFU, TAF9 / Fold change vs veh, TAF9 / RFU, SLC1A5 / Fold change vs veh, SLC1A5 / RFU, SLMO2 / Fold change vs veh, SLMO2 / RFU, ABCC4 / Fold change vs veh, ABCC4 / RFU, LOC101060439 /// RAP1B / Fold change vs veh, LOC101060439 /// RAP1B / RFU, RFX7 / Fold change vs veh, RFX7 / RFU, GTPBP10 / Fold change vs veh, GTPBP10 / RFU, CNEP1R1 / Fold change vs veh, CNEP1R1 / RFU, BIVM-ERCC5 /// ERCC5 / Fold change vs veh, BIVM-ERCC5 /// ERCC5 / RFU, ILF3 / Fold change vs veh, ILF3 / RFU 11762660_at / Fold change /veh 11762660_at / RFU VCAN (11757783_s_at) / Fold change /veh VCAN (11757783_s_at) / RFU DDX43 (11728927_at) / Fold change /veh DDX43 (11728927_at) / RFU KRT8 (11758188_x_at) / Fold change /veh KRT8 (11758188_x_at) / RFU NKD1 (11759106_at) / Fold change /veh NKD1 (11759106_at) / RFU SRD5A1 (11742802_a_at) / Fold change /veh SRD5A1 (11742802_a_at) / RFU TPSAB1 /// TPSB2 (11721975_s_at) / Fold change /veh TPSAB1 /// TPSB2 (11721975_s_at) / RFU GSTM3 (11746129_a_at) / Fold change /veh GSTM3 (11746129_a_at) / RFU IL23R (11737362_x_at) / Fold change /veh IL23R (11737362_x_at) / RFU TMEM51 (11727254_a_at) / Fold change /veh TMEM51 (11727254_a_at) / RFU PIWIL2 (11732686_x_at) / Fold change /veh PIWIL2 (11732686_x_at) / RFU ORM1 (11744905_x_at) / Fold change /veh ORM1 (11744905_x_at) / RFU CCDC152 (11743942_at) / Fold change /veh CCDC152 (11743942_at) / RFU ECM1 (11717891_a_at) / Fold change /veh ECM1 (11717891_a_at) / RFU IL23R (11748794_a_at) / Fold change /veh IL23R (11748794_a_at) / RFU TNFAIP8L3 (11732012_x_at) / Fold change /veh TNFAIP8L3 (11732012_x_at) / RFU MBOAT4 (11741988_at) / Fold change /veh MBOAT4 (11741988_at) / RFU 11764193_at / Fold change /veh 11764193_at / RFU TMEM53 (11763286_at) / Fold change /veh TMEM53 (11763286_at) / RFU MAGEB2 (11727129_at) / Fold change /veh MAGEB2 (11727129_at) / RFU TMEM200A (11744735_a_at) / Fold change /veh TMEM200A (11744735_a_at) / RFU CCDC152 (11751479_a_at) / Fold change /veh CCDC152 (11751479_a_at) / RFU FAM211A (11726209_a_at) / Fold change /veh FAM211A (11726209_a_at) / RFU RGS16 (11746705_a_at) / Fold change /veh RGS16 (11746705_a_at) / RFU VCAN (11755009_s_at) / Fold change /veh VCAN (11755009_s_at) / RFU RHOB (11743442_s_at) / Fold change /veh RHOB (11743442_s_at) / RFU RGS16 (11720943_a_at) / Fold change /veh RGS16 (11720943_a_at) / RFU RGS16 (11720944_at) / Fold change /veh RGS16 (11720944_at) / RFU, VPS4B / Fold change vs veh, VPS4B / RFU, CREB1 / Fold change vs veh, CREB1 / RFU, DNAJC13 / Fold change vs veh, DNAJC13 / RFU, GNAQ / Fold change vs veh, GNAQ / RFU, CDK5R1 / Fold change vs veh, CDK5R1 / RFU, ZRANB3 / Fold change vs veh, ZRANB3 / RFU, CUL4A / Fold change vs veh, CUL4A / RFU, CCNY / Fold change vs veh, CCNY / RFU, UFL1 / Fold change vs veh, UFL1 / RFU, COG3 / Fold change vs veh, COG3 / RFU, DIAPH2 / Fold change vs veh, DIAPH2 / RFU, SKA2 / Fold change vs veh, SKA2 / RFU, AFF3 / Fold change vs veh, AFF3 / RFU, LMF1 / Fold change vs veh, LMF1 / RFU, IPO11 / Fold change vs veh, IPO11 / RFU, DFFB / Fold change vs veh, DFFB / RFU, FOXP1 / Fold change vs veh, FOXP1 / RFU, CARD8 / Fold change vs veh, CARD8 / RFU, STRN3 / Fold change vs veh, STRN3 / RFU, ADK / Fold change vs veh, ADK / RFU, RASSF2 / Fold change vs veh, RASSF2 / RFU, WIPF1 / Fold change vs veh, WIPF1 / RFU, LARP1B / Fold change vs veh, LARP1B / RFU, RASA1 / Fold change vs veh, RASA1 / RFU, RB1 / Fold change vs veh, RB1 / RFU, PPFIA1 / Fold change vs veh, PPFIA1 / RFU, MAT2A / Fold change vs veh, MAT2A / RFU, CCT5 / Fold change vs veh, CCT5 / RFU, WDR92 / Fold change vs veh, WDR92 / RFU, CUX1 / Fold change vs veh, CUX1 / RFU, TTC7A / Fold change vs veh, TTC7A / RFU, TMEM135 / Fold change vs veh, TMEM135 / RFU, DEPTOR / Fold change vs veh, DEPTOR / RFU, CPM / Fold change vs veh, CPM / RFU, DNAJB6 / Fold change vs veh, DNAJB6 / RFU, CACNA2D3 / Fold change vs veh, CACNA2D3 / RFU, DTX4 / Fold change vs veh, DTX4 / RFU, TFCP2 / Fold change vs veh, TFCP2 / RFU, GMCL1 /// GMCL1P1 / Fold change vs veh, GMCL1 /// GMCL1P1 / RFU, AEBP2 / Fold change vs veh, AEBP2 / RFU, SNHG1 /// SNORD22 /// SNORD25 /// SNORD26 /// SNORD27 /// SNORD28 /// SNORD29 /// SNORD31 / Fold change vs veh, SNHG1 /// SNORD22 /// SNORD25 /// SNORD26 /// SNORD27 /// SNORD28 /// SNORD29 /// SNORD31 / Fold change (Aza/veh), C12orf56 (ProbeSet 11735607_a_at) / Fold change (ACY-1035/veh), C12orf56 (ProbeSet 11735607_a_at) / Fold change (Aza/veh), FGFR1OP (ProbeSet 11751329_s_at) / Fold change (ACY-1035/veh), FGFR1OP (ProbeSet 11751329_s_at) / Fold change (Aza/veh), VPS36 (ProbeSet 11739960_a_at) / Fold change (ACY-1035/veh), VPS36 (ProbeSet 11739960_a_at) / RFU SYPL1 (11715823_x_at) / Fold change /veh SYPL1 (11715823_x_at) / RFU IGFBP7 (11715501_s_at) / Fold change /veh IGFBP7 (11715501_s_at) / RFU REEP3 (11722064_at) / Fold change /veh REEP3 (11722064_at) / RFU IGLL1 (11728026_x_at) / Fold change /veh IGLL1 (11728026_x_at): dose or concentration left out as unconfirmed
# Conditions: MV-4-11 cells, 48 hours
structure (smiles),measurement,value
Nc1ccc(-c2cccs2)cc1NC(=O)c1ccc2c(c1)cc(C1CC1)n2CCN1CCOCC1 [ACY-1035],Fold change /veh GSTM3 (11746129_a_at),0.96
